Paper PMC9525908, “α-Crystallin chaperone mimetic drugs inhibit lens γ-crystallin aggregation: Potential role for cataract prevention” (The Journal of Biological Chemistry, 2022)
Changes are numbered by the printed parent chain. Entries after “also recorded” stand apart in the source; their conditions may differ.

Legend:
Assay type in all cases: biochemical
bovine gamma crystallins = assay: Screen: H2O2 and heat mediated aggregation of bovine gamma crystallins, turbidimetry at 600 nm; conditions: 500 μM compound, H2O2 with or without added thermal stress
Experimental: For the initial screen, a microtiter plate assay was developed in which bovine crystallins (2 mg/ml of 50 mM K3PO4 buffer, pH 7.2 [buffer A]) were exposed to H2O2 at varying concentrations (1–50 mM) for 12 to 36 h, upon which turbidity developed (at 50 mM H2O2 concentration) in both β- and γ-crystallins (Fig. 1, A and B). […] This was determined by turbidimetry at 600 nm (Fig. 1C) and confirmed using visual assessment of solution transparency over a fine text as well as the presence of cloudy aggregates visible by dark field microscopy (Fig. 1D). The drug:protein stoichiometric ratio was about 5:1. The wavelength of 600 nm was chosen to minimize interference by colored compounds, many of which absorb below 500 nm (Fig. 1E).
Wells were filled with 90 μl calf γ-crystallin-rich protein solution (pool 4 at 2 mg/ml) followed by 0.5 to 5.0 μl of drug (all 10 mM stock solution in DMSO) as supplied by the manufacturer and 10 μl H2O2 (450 mM stock solution in water) and sealed with sticky Applied Biosystems MicroAmp Clear Adhesive films (Life Technologies). Control wells received DMSO only. […] In order to quantitate the impact of the drugs on aggregation, a fitness plot was created (Fig. 1 C) that allowed us to identify wells with enhanced/worsening versus suppressed crystallin aggregation. In addition, aggregation in each well was also visually assessed by two independent “blinded” readers for the ability to read fine print through each well by placing the plates over small font text (Fig. 1D). Both machine and visual readouts were reconciled in order to increase robustness.

HγD = target: T1, HγD (Homo sapiens, UniProt P07320); assay: Thermal aggregation (72 °C) turbidity assay, recombinant HγD
T1 construct: made in house; host or cells: E. coli BL21(DE3) pLysS, pET3d vector
T1 sequence (P07320 1-174): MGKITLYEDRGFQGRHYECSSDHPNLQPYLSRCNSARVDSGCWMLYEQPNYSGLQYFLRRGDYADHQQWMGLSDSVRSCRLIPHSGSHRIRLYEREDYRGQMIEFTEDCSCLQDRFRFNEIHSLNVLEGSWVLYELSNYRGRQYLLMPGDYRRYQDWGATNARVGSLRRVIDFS
Experimental: For refinement of the aforementioned screen, these compounds were tested at concentrations varying from 50 to 500 μM and 1.5 mg/ml concentration of recombinant HγD, human gamma S (HγS), its deamidation mutants γS_N14, γS_N76, γS_N143 and its triple mutant γSTM (Fig. 1F). In addition, other drugs and compounds that tested positive in the initial screen were also included, such as escin (E), hematein (I), citric acid (CA), docusate sodium (DS), and sennoside A (S) (Fig. S1B). […] For a review, see the study by Roskamp et al. ([38]). […] Thus, drug C and drug G emerged as the strongest antidenaturation/aggregation and potential anticataract drugs. For the mechanistic studies below these two compounds together with either drug M, chosen mostly as negative control, or the entire set of six compounds were used for comparison purpose, whereby the words “drug” or “compound” are used interchangeably in the studies later.
(§1) For end-point assays, HγD and MγS (1 mg/ml, 100 μl) in 50 mM K3PO4 buffer (pH 7.2) in set of triplicates in transparent flat bottom 96-well plates were heated at 72 °C for 20 min in the presence and absence of selected drugs at varying concentrations. Absorbance was measured at 600 nm with a SpectraMax iD5 (Molecular Devices).
HγD protein (2.5 mg/ml buffer A) was incubated at 72 °C for 20 min without or with 100 or 400 μM drug G or C in buffer A. Final DMSO concentration was 5% in all samples. […] Therefore, samples with and without 400 μM drug G were chosen for identification of drug G-induced miscleavage sites upon digestion with 25:1 protein:trypsin ratio (sequencing grade modified trypsin; Promega) in buffer A. After 4 h, samples were frozen at −80 °C until processed for determination of miscleavage sites using proteomics analysis. LC–MS/MS analysis was performed on an Orbitrap Eclipse mass spectrometer (Thermo Fisher Scientific) coupled with a Waters nanoAcquity UPLC system (Waters) in total 90 min run using a linear gradient range from 0 to 42% solvent B (0.1% formic acid in acetonitrile) versus solvent A (0.1% formic acid in water) at a flow rate of 300 nl/min. MS1 full mass spectra were acquired in the Orbitrap mass analyzer at the resolution of 120 K. MS/MS tandem mass spectra were generated in the ion trap mass analyzer by collision-induced dissociation of peptide ions at a normalized collision energy of 35%. The resulting MS/MS spectra were searched against human gamma D protein database using Mass Matrix software (MassMatrix, Inc) with the mass errors of 10 ppm and 0.8 Da for MS1 and MS/MS scans, respectively. The oxidation of methionine was set for variable modifications, and three miscleavages were allowed for the search.
(§2) Final DMSO concentration was 5% including in control samples. Microtiter plates were first incubated for 10 min at 72 °C and reincubated for 10 more min. Absorbance was measured at both 10 and 20 min total incubation time.

WT-MγS = target: T2, WT-MγS (Mus musculus, UniProt O35486); assay: End-point heat-mediated turbidity assay, WT-MγS; conditions: 400 μM drug, 72 °C, protein above 0.5 mg/ml
T2 construct: made in house; host or cells: E. coli BL21(DE3) pLysS, pET17b vector
T2 sequence (O35486 1-178): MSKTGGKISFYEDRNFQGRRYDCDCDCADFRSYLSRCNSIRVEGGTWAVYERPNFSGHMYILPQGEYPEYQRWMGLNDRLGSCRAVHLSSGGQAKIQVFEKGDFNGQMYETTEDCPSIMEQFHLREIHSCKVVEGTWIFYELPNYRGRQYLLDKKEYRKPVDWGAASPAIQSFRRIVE
Experimental: as §1, with “Devices). […]” for “Devices).”
as §2

Bovine γ-crystallins = assay: Thermal aggregation (72 °C) turbidity assay, bovine γ-crystallins (pool 4); conditions: for Thermal denaturation inhibitory activity in subscreen: 150 μM; for Thermal denaturation inhibitory activity in subscreen / % Suppression: 72 °C 20 min; for % Suppression: 75 μM protein, 125 μM or less inhibitor (1.7:1)
Experimental: Candidate compounds were rescreened using thermal denaturation upon heating at 72 °C for 20 min according to Chen et al. ([36]) in order to select for compounds with chaperone rather than antioxidant activity since a large number of the latter already exist in the cataract field ([37]).
(§3) For a review, see the study by Roskamp et al. ([38]). […] For the mechanistic studies below these two compounds together with either drug M, chosen mostly as negative control, or the entire set of six compounds were used for comparison purpose, whereby the words “drug” or “compound” are used interchangeably in the studies later.
All assays were carried out manually in CORNING #9017 Costar Assay 96-well plates. Wells were filled with 90 μl calf γ-crystallin-rich protein solution (pool 4 at 2 mg/ml) followed by 0.5 to 5.0 μl of drug (all 10 mM stock solution in DMSO) as supplied by the manufacturer and 10 μl H2O2 (450 mM stock solution in water) and sealed with sticky Applied Biosystems MicroAmp Clear Adhesive films (Life Technologies). Control wells received DMSO only. Plates were shaken for 2 min and incubated from 24 to 72 h in a culture room at 37 °C. […] A second reading was performed following a heat shock of 20 min at 72 °C as described by Chen et al. ([36]) in order to capture drugs with heat-resistant chaperone activity. In order to quantitate the impact of the drugs on aggregation, a fitness plot was created (Fig. 1 C) that allowed us to identify wells with enhanced/worsening versus suppressed crystallin aggregation. In addition, aggregation in each well was also visually assessed by two independent “blinded” readers for the ability to read fine print through each well by placing the plates over small font text (Fig. 1D). Both machine and visual readouts were reconciled in order to increase robustness.
as §2

HγS = target: T3, HγS (Homo sapiens, UniProt P22914); assay: Thermal aggregation (72 °C, 20 min) turbidity assay, HγS; conditions: HγS; 75 μM protein, 125 μM or less inhibitor (1.7:1), 72 °C 20 min
T3 sequence (P22914 1-178): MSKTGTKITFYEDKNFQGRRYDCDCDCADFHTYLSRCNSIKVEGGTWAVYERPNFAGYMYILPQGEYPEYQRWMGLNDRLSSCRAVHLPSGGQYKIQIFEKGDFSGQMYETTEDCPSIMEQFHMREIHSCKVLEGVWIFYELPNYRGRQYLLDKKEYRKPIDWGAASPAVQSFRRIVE
From the text: as §3

HγS_N143D = target: T4, HγS_N143D (Homo sapiens, UniProt P22914, N144D); assay: Thermal aggregation (72 °C, 20 min) turbidity assay, HγS_N143D; conditions: HγS_N143D; 75 μM protein, 125 μM or less inhibitor (1.7:1), 72 °C 20 min
T4 sequence (P22914 1-178 N144D): T3 sequence (P22914 1-178) with N144D
From the text: as §3

| Molecule | Outcome in the library screen (effect on aggregation/turbidity at 600 nm) (bovine gamma crystallins) | further results |
| --- | --- | --- |
| Cc1c(C(=O)O)c(O)cc2c1C(=O)c1c(O)c(C3O[C@H](CO)[C@@H](O)[C@H](O)[C@H]3O)c(O)c(O)c1C2=O (stereo in doubt) [carmine] | no impact |  |
| O=C(O)CC(O)(CC(=O)O)C(=O)O [CA, citric acid] | positive |  |
| CCCCCCCCCCCCCCCCC(C(=O)O)C(O)(CC(=O)O)C(=O)O (centres unmarked) [drug A, agaric acid] |  | Effect on HγD aggregation at low protein (HγD; 400 μM drug, 72 °C): not; Effect on HγD at 2.0 mg/ml and 20 min (HγD; 400 μM drug, 72 °C, 20 min): suppressed; also recorded: protects; Effect on MγS absorbance (WT-MγS): blocked absorbance; also recorded: protects; Effect on BGC aggregation at 2.0 mg/ml at 10 min (Bovine γ-crystallins; 400 μM drug, 72 °C, 10 min): improved BGC aggregation; also recorded: protects |
| CCCCC(CC)COC(=O)CC(C(=O)OCC(CC)CCCC)S(=O)(=O)O (centres unmarked) [drug DS, docusate sodium] | positive |  |
| CC1=C(CCC(=O)O)c2cc3[nH]c(cc4nc(cc5[nH]c(cc1n2)c(C)c5C(C)O)C(C)=C4C(C)O)c(C)c3CCC(=O)O (centres unmarked) [drug H, hematoporphyrin] | positive | Thermal denaturation inhibitory activity in subscreen (Bovine γ-crystallins): thermal denaturation inhibitory activity |
| O=C1C=C2CC3(O)COc4c(ccc(O)c4O)C3=C2C=C1O (centres unmarked) [drug I, hematein] | positive |  |
| O=C(O)c1cc(O)c2c(c1)[C@H]([C@H]1c3cc(C(=O)O)cc(O)c3C(=O)c3c(O[C@@H]4O[C@H](CO)[C@@H](O)[C@H](O)[C@H]4O)cccc31)c1cccc(O[C@@H]3O[C@H](CO)[C@@H](O)[C@H](O)[C@H]3O)c1C2=O [drug S, sennoside A] | positive |  |
| CCCCCCCCCCCCCCOS(=O)(=O)[O-].[Na+] [drug T, tetradecyl sulfate sodium] |  | % Suppression (HγS): 40%; % Suppression (HγS_N143D): 42%; Thermal denaturation inhibitory activity in subscreen (Bovine γ-crystallins): thermal denaturation inhibitory activity |
| C=CCCCCCCCCCCCC(O)CC(O)CO (centres unmarked) [drug V, avocadene] |  | Thermal denaturation inhibitory activity in subscreen (Bovine γ-crystallins): thermal denaturation inhibitory activity; % Suppression (Bovine γ-crystallins; Bovine γ-crystallins experiment 1): 36%; % Suppression (Bovine γ-crystallins; Bovine γ-crystallins experiment 2): 53% |
| O=C(O[C@@H]1Cc2c(O)cc(O)cc2O[C@@H]1c1cc(O)c(O)c(O)c1)c1cc(O)c(O)c(O)c1 [epigallocatechin gallate] | improved aggregation |  |
| COc1ccc([C@@H]2CC(=O)c3c(O)cc(O)cc3O2)cc1O [hesperetin] | no impact |  |
| CC(C)=CCC[C@@H](C)[C@H]1CC[C@@]2(C)C3=C(CC[C@]12C)[C@@]1(C)CC[C@H](O)C(C)(C)[C@@H]1CC3 [lanosterol] | no impact |  |
| O=c1c(O)c(-c2ccc(O)cc2O)oc2cc(O)cc(O)c12 [morin] | no impact |  |
| O=c1c(O)c(-c2ccc(O)c(O)c2)oc2cc(O)cc(O)c12 [quercetin] | worsened aggregation |  |
| escin [drug E] | positive |  |
| hemin | positive |  |
| pool 1: purified high–molecular weight bovine α-crystallins, used as positive control |  | Inhibition of HγD aggregation by positive control (HγD; thermal aggregation): potently inhibit; Inhibition of pool 4 protein aggregation by positive control (Bovine γ-crystallins; thermal aggregation): potently inhibit |
